Assay results reported in patent publication US20250177340A1, “Tartaric Acid Analogs and Uses Thereof” (Lapix Therapeutics, Inc., priority 2021, published 2025).

System: CTLA-4
Assay: Percent CTLA-4+/CD8+ T-cells in splenocytes after a single dose, melanoma murine model
Type: in vivo, mice
Experimental: The pharmacodynamic (PD) effects of a single IV dose of Compound B in a melanoma murine model were evaluated. B16F10 melanoma cells were grown in RPMI 1640 media supplemented with 10% FBS and antibiotics (penicillin/streptomycin) using T75 flasks. When cells reached 70-80% confluency, they were treated with 3 ml of 0.25% Trypsin/EDTA. Afterward, detached cells were harvested. A single-cell suspension was prepared in PBS. An IV injection of 10^5 cells in mice marked day −3 of the experiment.
Animals were housed four per cage, and had access to food and water ad libitum. Compound B was dissolved in sterile PBS, and pH was adjusted to approximately 7.5. Sterile PBS served as control.
Three days after the IV injection of melanoma cells, animals in the baseline group (n=3) were sacrificed and their spleens were collected for KLRG-1, CTLA-4, and PD-1 analysis. At each predetermined time-point (24, 48, and 120 hours after dosing) three animals from each group were sacrificed for splenocyte analysis of KLRG-1, CTLA-4, and PD-1 expression levels, and expression levels were compared to baseline.
Spleens collected for splenocyte analysis were prepared into a single-cell suspension for cellular phenotyping by flow cytometry. Cells were stained and gated for CD8. Percent KLRG-1+, CTLA-4+, and PD-1+ CD8+ T-cells were evaluated using flow cytometry.

O=C(O)[C@H](O)[C@@H](O)C(=O)OCCCc1ccccc1 [Compound B, (2R,3R)-2,3-dihydroxy-4-oxo-4-(3-phenylpropoxy)butanoic acid]
CTLA-4+/CD8+ T-cells, mean (0.14 mg/mouse IV single dose, 24 h): 9.8% | CTLA-4+/CD8+ T-cells, mean (0.14 mg/mouse IV single dose, 48 h): 5.3% | CTLA-4+/CD8+ T-cells, mean (0.14 mg/mouse IV single dose, 120 h): 11.9% | CTLA-4+/CD8+ T-cells, mean (0.7 mg/mouse IV single dose, 24 h): 8.5% | CTLA-4+/CD8+ T-cells, mean (0.7 mg/mouse IV single dose, 48 h): 5.7% | CTLA-4+/CD8+ T-cells, mean (0.7 mg/mouse IV single dose, 120 h): 12.5% | CTLA-4+/CD8+ T-cells, mean (1.4 mg/mouse IV single dose, 24 h): 7.4% | CTLA-4+/CD8+ T-cells, mean (1.4 mg/mouse IV single dose, 48 h): 5.6% | CTLA-4+/CD8+ T-cells, mean (1.4 mg/mouse IV single dose, 120 h): 11.7% | decrease from baseline in CTLA-4+/CD8+ T-cells (single IV dose (0.14, 0.7, 1.4 mg), 48 h): approximately 35% | reduction in CTLA-4+/CD8+ T-cells compared to same time point in control group (single IV injection, 48 h): approximately 38%
